Source: patent publication US20080090834A1, “SELECTIVE AZOLE PDE10A INHIBITOR COMPOUNDS” (Pfizer Inc, priority 2006, published 2008)
Counter-ions that a name gives are not always drawn.

Target: T1, cloned rat PDE10A full-length enzyme (Rattus norvegicus, UniProt Q9QYJ6)
T1 construct: cloned rat PDE10A full-length enzyme grown in transfected Sf9 insect cells; made in house; host or cells: Sf9 insect cells
T1 sequence (Q9QYJ6 1-794): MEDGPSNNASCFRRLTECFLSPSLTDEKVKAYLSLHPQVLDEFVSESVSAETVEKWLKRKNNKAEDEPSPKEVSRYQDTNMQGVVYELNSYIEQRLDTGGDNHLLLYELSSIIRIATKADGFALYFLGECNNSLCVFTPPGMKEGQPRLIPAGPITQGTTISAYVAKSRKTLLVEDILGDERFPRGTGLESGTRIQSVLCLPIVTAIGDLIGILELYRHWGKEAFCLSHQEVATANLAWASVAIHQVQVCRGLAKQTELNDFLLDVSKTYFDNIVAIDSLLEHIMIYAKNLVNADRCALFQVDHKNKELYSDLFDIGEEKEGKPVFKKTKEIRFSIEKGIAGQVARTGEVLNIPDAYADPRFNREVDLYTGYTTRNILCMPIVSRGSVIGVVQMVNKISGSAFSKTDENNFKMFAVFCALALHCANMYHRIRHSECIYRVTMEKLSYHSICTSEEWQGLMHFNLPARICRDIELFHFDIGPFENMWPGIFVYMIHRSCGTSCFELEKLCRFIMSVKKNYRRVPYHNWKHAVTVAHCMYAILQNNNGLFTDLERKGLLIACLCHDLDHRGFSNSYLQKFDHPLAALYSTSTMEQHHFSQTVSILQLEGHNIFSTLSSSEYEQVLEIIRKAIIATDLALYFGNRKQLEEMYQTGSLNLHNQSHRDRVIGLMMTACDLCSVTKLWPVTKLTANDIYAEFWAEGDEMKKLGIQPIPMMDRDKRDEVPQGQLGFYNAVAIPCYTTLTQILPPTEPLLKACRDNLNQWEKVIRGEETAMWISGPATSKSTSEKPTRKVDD
Assay: PDE10 enzyme inhibition, [3H]cAMP scintillation proximity assay
Format: biochemical
Conditions: rat PDE10A from Sf9 cells, 20 nM [3H]cAMP, SPA beads, 20 minute incubation at room temperature
Method: Compounds of the present invention were evaluated for ability to inhibit PDE10 enzyme with the following Assay procedure
The enzyme used in the procedure was cloned rat PDE10A full-length enzyme grown in transfected Sf9 insect cells. Cloned enzyme was extracted from homogenized cell pellets and stored frozen in homogenizing buffer until use. Compounds were initially dissolved in 100% DMSO and diluted out in 20 percent DMSO/water solution. Final concentration of DMSO in the assay was 2 percent as compounds were tested in triplicate in 96 well plates. Compound solution was placed in well, then tritiated cyclic AMP (New England Nuclear NET275) in assay buffer was added at 20 nM concentration. Then PDE10 enzyme in assay buffer of 50 mM Tris, 8.3 mM MgCl2, pH 7.5 at room temperature was added for a final assay volume of 100 ul. Concentration of enzyme was added such that less than 10 percent of [3H]cAMP at 20 nM was converted to detectable end product, [3H]AMP bound to SPA (Scintillation Proximity Assay) beads. Phosphodiesterase scintillation proximity yttrium silicate beads from Amersham Biosciences (RPNQ0150) were added (50 ul at 20 mg/ml) after a 20 minute incubation at room temperature. Zinc sulphate as a component of the beads stops the phosphodiesterase reaction.
Non-specific binding to SPA beads was determined by addition of 1 uM papaverine. Total conversion by enzyme without inhibitor of [3H]cAMP to [3H]AMP, as detected by scintillation of [3H]AMP bound to yttrium silicate beads, was determined in the presence of vehicle-only.

IC50	Molecule
11.5 nM	c1ccc(-c2cn(-c3cccnc3)c(-c3ccc(-n4nnc5cccnc54)cc3)n2)nc1 [Example 51, 3(4-(4-(pyridin-2-yl)-1-(pyridin-3-yl)-1H-imidazol-2-yl)phenyl)-3H-[1,2,3]triazole[4,5-b]pyridine bis-TFA salt]
1.48 nM	Cc1ccc(-n2cc(-c3nccs3)nc2-c2ccc(-n3ccc4cccnc43)cc2)cn1 [Example 27, 1-(4-(1-(6-methylpyridin-3-yl)-4-(thiazol-2-yl)-1H-imidazol-2-yl)phenyl)-1H-pyrrolo[2,3-b]pyridine]
274 nM	Cn1ccnc1-c1cn(-c2cncnc2)c(-c2ccc(-n3ccc4cccnc43)cc2)n1 [Example 67]
13.4 nM	c1ccc(-n2cc(-c3nccs3)nc2-c2ccc(-n3ccc4cccnc43)cc2)nc1 [Example 24]
16.4 nM	Cc1ccc(-n2cc(-c3cccc[n+]3[O-])nc2-c2ccc(-n3ccc4cccnc43)cc2)c[n+]1[O-] [Example 15]
65.4 nM	N#Cc1cccc2c1ccn2-c1ccc(-c2nc(-c3ccccn3)cn2-c2cccnc2)cc1 [Example 40, 1-(4-(4-(pyridin-2-yl)-1-(pyridin-3-yl)-1H-imidazol-2-yl)phenyl)-1H-indole-4-carbonitrile bis-TFA salt]
< 2.45 nM	On1c(-c2cccs2)nc(-c2ccc(-n3ccc4cccnc43)cc2)c1-c1cnccn1 [Example 104, 1-(4-(1-hydroxy-5-(pyrazin-2-yl)-2-(thiophen-2-yl)-1H-imidazol-4-yl)phenyl)-1H-pyrrolo[2,3-b]pyridine]
175 nM	Cc1cc(-c2nc(-c3cncs3)[nH]c2-c2cnccn2)ccc1-n1ccc2cccnc21 [Example 112]
67.8 nM	c1ccc(-c2cn(-c3cccnc3)c(-c3ccc(-n4nnc5ccccc54)cc3)n2)nc1 [Example 42, 1-(4-(4-(pyridin-2-yl)-1-(pyridin-3-yl)-1H-imidazol-2-yl)phenyl)-1H-benzo[d][1,2,3]triazole bis-TFA salt]
18.6 nM	c1ccc(-c2nc(-c3cccnc3)c(-c3ccc(-n4ccc5cccnc54)cc3)[nH]2)nc1 [Example 114, 1-(4-(2-(pyridin-2-yl)-4-(pyridin-3-yl)-1H-imidazol-5-yl)phenyl)-1H-pyrrolo[2,3-b]pyridine]
113 nM	Clc1cccc2c1ccn2-c1ccc(-c2nc(-c3ccccn3)cn2-c2cccnc2)cc1 [Example 39, 4-chloro-1-(4-(4-(pyridin-2-yl)-1-(pyridin-3-yl)-1H-imidazol-2-y TFA salt]

More lines, now with the values behind:

Molecule	IC50
COc1nc2cccnc2n1-c1ccc(-c2nc(-c3cncs3)cn2-c2ccc(C)nc2)cc1 [Example 116]	0.305 nM
C#Cc1cc(C)cnc1N [Example 22A, 3-ethynyl-5-methylpyridin-2-amine]	3.35 nM
c1ccc(-c2cn(-c3cccnc3)c(-c3ccc(-n4cnc5ncccc54)cc3)n2)nc1 (single isomer, unassigned) [Example 46, 1-(4-(4-(pyridin-2-yl)-1-(pyridin-3-yl)-1H-imidazol-2-yl)phenyl)-1H-imidazo[4,5-b]pyridine bis-trifluororoacetic acid salt]	231 nM
Cc1cc(-c2nc(-c3cccs3)[nH]c2-c2cnccn2)ccc1-n1ccc2cccnc21 [Example 113]	47.4 nM
3-(4-(5-(4-methoxyphenyl)-2-(thiophen-2-yl)-1H-imidazol-4-yl)phenyl)-3H-imidazol[4,5-b]pyridine and 1-(4-(5-(4-methoxyphenyl)-2-(thiophen-2-yl)-1H-imidazo[4,5-b]pyridine [Example 101]	0.708 nM
Clc1ccc(-c2ccc(-c3nc(-c4ccccn4)cn3-c3cncnc3)cc2)cc1Cl [Example 70, 5-(2-(4-(3,4-dichloropheny)phenyl)-4-(pyridin-2-yl)-1H-imidazol-1-yl)pyrimidine]	216 nM
COc1ccc(-n2cc(-c3nccs3)nc2-c2ccc(-n3ccc4cccnc43)cc2)cn1 [Example 29, 1-(4-(1-(6-methoxypyridin-3-yl)-4-(thiazol-2-yl)-1H-imidazol-2-yl)phenyl)-1H-pyrrolo[2,3-b]pyridine]	0.383 nM
c1ccc(-n2cc(-c3cccnc3)c(-c3ccc(-n4ccc5cccnc54)cc3)n2)nc1 [Example 120, 1-(4-(1-(pyridin-2-yl)-4-(pyridin-3-yl)-1H-pyrazol-3-yl)phenyl)-1H-pyrrolo[2,3-b]pyridine]	42.9 nM
Cc1cnc2c(ccn2-c2ccc(-c3nc(-c4ccccn4)cn3-c3ccc(C)nc3)cc2)c1 [Example 22, 5-methyl-1-(4-(1-[6-methylpyridin-3-yl)-4-(pyridin-2-yl)-1H-imidazol-2-yl)phenyl)-1H-pyrrolo[2,3-b]pyridine]	12.1 nM
Cc1cc(-c2nc(-c3cccs3)n(O)c2-c2cnccn2)ccc1-n1ccc2cccnc21 [Example 109, 1-(4-(1-hydroxy-5-(pyrazin-2-yl))-2-(thiophen-2-yl)-1H-imidazol-4-yl)-2-methylphenyl-1H-pyrrolo[2,3-b]pyridine]	18.4 nM
COc1ccc(-n2cc(-c3cccs3)nc2-c2ccc(-n3ccc4cccnc43)cc2)cc1 [Example 1]	3.35 nM
c1ccc(-c2cn(-c3cccnc3)c(-c3ccc(-n4c(-c5ccccn5)nc5ccccc54)cc3)n2)nc1 [Example 43, 2-(pyridin-2-yl)-1-(4-(4-(pyridin-2-yl)-1-(pyridin-3-yl)-1H-imidazol-2-yl)phenyl)-1H-benzo[d]imidazole]	33.1 nM
c1cnc2c(c1)ccn2-c1ccc(-c2nc(-c3nccs3)cn2-c2ccncc2)cc1 [Example 25, 1-(4-(1-(pyridin-4-yl)-4-(thiazol-2-yl)-1H-imidazol-2-yl)phenyl)-1H-pyrrolo[2,3-b]pyridine]	4.46 nM
c1cnc2c(c1)ccn2-c1ccc(-c2nc(-c3nccs3)cn2-c2cncnc2)cc1 [Example 26, 1-(4-(1-(pyrimidin-5-yl)-4-(thiazol-2-yl)-1H-imidazol-2-yl)phenyl)-1H-pyrrolo[2,3-b]pyridine]	4.4 nM
COc1ccc(-c2[nH]c(-c3cccs3)nc2-c2ccc(-n3ccc4cc(OC)ccc43)cc2)cc1 [Example 102, 5-methoxy-1-(4-(5-(4-methoxyphenyl)-2-(thiophen-2-yl)-1H-imidazol-4-yl)phenyl)-1H-indole]	15.8 nM
c1csc(-c2nc(-c3ccc(-n4ccc5cccnc54)cc3)c(-c3cnccn3)[nH]2)c1 [Example 105]	9.21 nM
c1ccc(-c2cn(-c3cccnc3)c(-c3ccc(-n4ccnc4)cc3)n2)nc1 [Example 44, 3-(2-(4-(1H-imidazol-1-yl)phenyl)-4-(pyridin-2-yl)-1H-imidazol-1-yl)pyridine]	522 nM
Cc1cc(-c2nc(-c3cccs3)n(O)c2-c2cnccn2)ccc1-n1ccc2cccnc21 [Example 110, 1-(4-(1-hydroxy-5-(pyrazin-2-yl)-2-(thiophen-2-yl)-1H-imidazol-4-yl)-2-methylphenyl)-1H-pyrrolo[2,3-b]pyridine]	36.6 nM
Cc1ccc(-n2cc(-c3nccs3)nc2-c2ccc(-n3c(C(F)F)nc4cccnc43)cc2)cn1 [Example 84]	0.73 nM
Cc1ccc(-n2cc(-c3ccccn3)nc2-c2ccc(-n3cnc4cncnc43)cc2)cn1 [Example 55, 9-(4-(1-(6-methylpyridin-3-yl)-4-(pyridin-2-yl)-1H-imidazol-2-yl)phenyl-9H-purine and 7-(4-(1-(6-methylpyridin-3-yl)-4-pyridin-2-yl)-1H-imidazol-2-yl))phenyl)-7H-purine]	10.2 nM
Cc1cc(-n2cc(-c3ccncc3)nc2-c2ccc(-n3ccc4cccnc43)cc2)ccn1 [Example 69, 1-(4-(1-(2-methylpyridin-4-yl-4-(pyridin-4-yl)-1H-imidazol-2-yl)phenyl)-1H-pyrrolo-[2,3-b]pyridinebis-TFA salt]	89.7 nM
c1ccc(-c2cn(-c3cccnc3)c(-c3ccc(-c4cccc5cccnc45)cc3)n2)nc1 [Example 79, 8-(4-(4-(pyridin-2-yl)-1-(pyridin-3-yl)-1H-imidazol-2-yl)phenyl)quinoline]	3.94 nM
